Assay [1] concerns intestinal absorption of a phosphate meal from the gastrointestinal tract. Nature of the assay: Acute phosphate tracer uptake to plasma after intraduodenal co-administration of phosphate test meal and compound (Example 5). In kind it is in vivo, rat. Particulars: rats, 15 min after intraduodenal co-administration. The procedure:
(§1) Compounds were tested for the ability to reduce the appearance of circulating radiolabeled phosphate subsequent to administration to the alimentary canal in rats. The rate of radiolabeled phosphate tracer accumulation in the blood of rats was taken as a surrogate for the intestinal absorption rate of a phosphate meal from the gastrointestinal tract. To this end, circulating radiolabeled phosphate was monitored after intragastric co-administration to rats of a phosphate tracer meal along with example compounds. However, since some of the compounds tested potentially had properties that may hinder this assay, such as having putative gastrointestinal motility effects (e.g., delaying gastric emptying) or being purposefully chemically unstable in the gastrointestinal tract, direct intraduodenal administrations of the phosphate tracer bolus was also performed at times.
Male Sprague-Dawley rats that were 8-weeks of age were purchased from Charles River Laboratories (Hollister, Calif.). To enable blood sampling, rats were purchased with catheters surgically implanted in the jugular vein by the vendor. For studies requiring intraduodenal administration, an additional catheter was surgically implanted by the vendor to allow for direct infusion to the lumen of the duodenum. […]
Blood was sampled from the jugular vein via implanted catheters from conscious rats following dosing and the radioisotope associated with the resulting plasma was determined by scintillation counting. The relative amount of phosphate uptake from the administered dose to the plasma was assessed using body weight estimation of total circulating plasma. […] The comparative amount of phosphate uptake at 15 min post-dose for each group (n=6) was expressed as a percentage relative to the study vehicle group (n=6) as mean±SEM. Statistical comparisons of the means of each test group compared to the mean of the vehicle group were determined by one-way analysis of variance followed by the Dunnett's posthoc test and P<0.05 was accepted as statistically significant (ns, not significant; *, P<0.05; **, P<0.01; and ***, P <0.001).

The test system is the same in assay [2]. Kind of assay: Acute phosphate tracer uptake to plasma after intragastric co-administration of phosphate test meal and compound (Example 5). The format is in vivo, rat. The conditions noted are these: rats, 15 min after intragastric co-administration. The procedure:
as §1
Male Sprague-Dawley rats that were 8-weeks of age were purchased from Charles River Laboratories (Hollister, Calif.). To enable blood sampling, rats were purchased with catheters surgically implanted in the jugular vein by the vendor. For studies requiring intraduodenal administration, an additional catheter was surgically implanted by the vendor to allow for direct infusion to the lumen of the duodenum. Rats were fed a normal, grain-based chow (Harlan Teklad, Madison, Wis.; 2018 Teklad Global 18% Protein Rodent Diet) containing 0.65% P, 1% Ca, and 1.5 iu/g Vitamin D3 and given water ad libitum leading up to the study.
Following an overnight fast, rats were administered a phosphate solution containing [^33P]orthophosphate (PerkinElmer, Waltham, Mass.) as a tracer with or without test articles dispersed in the solution at the indicated dosage. This dosing solution typically contained 8 mM monobasic sodium phosphate (1.25 μCi [^33P]orthophosphate/μmol), 4 mM calcium chloride, 0.4% hydroxypropyl methocellulose (w/v), and 2% dimethylsulfoxide (w/v). The dosing solutions were prepared in water for intragastric gavage at 10 ml/kg and in saline if administered intraduodenally using a previously implanted catheter at 5 ml/kg as a bolus.
Blood was sampled from the jugular vein via implanted catheters from conscious rats following dosing and the radioisotope associated with the resulting plasma was determined by scintillation counting. The relative amount of phosphate uptake from the administered dose to the plasma was assessed using body weight estimation of total circulating plasma. See Bijsterbosch et al., Experientia. 37: 381-382, 1981 (The plasma volume of the Wistar rat in relation to the body weight). The comparative amount of phosphate uptake at 15 min post-dose for each group (n=6) was expressed as a percentage relative to the study vehicle group (n=6) as mean±SEM. Statistical comparisons of the means of each test group compared to the mean of the vehicle group were determined by one-way analysis of variance followed by the Dunnett's posthoc test and P<0.05 was accepted as statistically significant (ns, not significant; *, P<0.05; **, P<0.01; and ***, P <0.001).

A further assay concerns the target P2Y2 receptor (Homo sapiens, UniProt P41231). Particulars: cited from earlier work; for EC50: agonist potency.
Assay [3] relates to phosphate absorption/uptake in the small intestine. Kind of assay: 33P uptake to plasma in rats simultaneously dosed with 33P and test compound (Examples 2-4). The format is in vivo, rat. Particulars: for uptake of phosphate in the gastrointestinal tract of rats: figure legends FIGS. 1-3. The procedure: Experiments were performed to determine whether guanylate cyclase C (GC-C) receptor agonists can decrease phosphate absorption/uptake in the small intestine as measured by ^33P uptake. Rats were simultaneously dosed with ^33P and linaclotide as shown below:
Blood was collected at 5, 15, 30, 45, and 60 minutes post-^33P administration and plasma scintillation counting was performed.
Experiments were performed to determine whether other classes of drugs can decrease phosphate absorption/uptake in the small intestine as measured by ^33P uptake. Rats were simultaneously dosed with ^33P and either an imidazoline subtype 1 (I1) receptor agonist (moxonidine) or an adenylate cyclase agonist (the water-soluble forskolin analog NKH477) as shown below:
Experiments were performed to determine whether increasing intracellular calcium (Ca^++) by different mechanisms can also decrease phosphate absorption in the small intestine as measured by ^33P uptake. Rats were simultaneously dosed with ^33P and test compounds as shown below: […]

[4] abbreviates: Rattus norvegicus, po, 0.25 h, dose 10 mg/kg, read-out: Uptake of phosphate tracer to plasma, % of study vehicle.

Read-outs that look alike come from different tables or passages of the source. Where a SMILES comes first, the peptide text is derived from it. Bridges are numbered along the chain shown (N, C = ends).

P2Y2 receptor, sequence (P41231 whole entry): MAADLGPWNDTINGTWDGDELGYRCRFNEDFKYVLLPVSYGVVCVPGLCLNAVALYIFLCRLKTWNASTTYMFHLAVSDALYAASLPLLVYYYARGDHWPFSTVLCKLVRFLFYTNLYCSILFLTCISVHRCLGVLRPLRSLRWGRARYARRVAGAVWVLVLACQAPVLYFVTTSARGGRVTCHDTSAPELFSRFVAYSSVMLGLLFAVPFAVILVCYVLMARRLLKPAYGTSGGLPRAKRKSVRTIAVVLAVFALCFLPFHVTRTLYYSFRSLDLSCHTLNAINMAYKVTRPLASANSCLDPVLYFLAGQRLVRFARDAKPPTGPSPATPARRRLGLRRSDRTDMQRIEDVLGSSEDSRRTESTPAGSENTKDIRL

On to `CSc1nc(N)c2ncn([C@@H]3O[C@H](COP(=O)(O)OP(=O)(O)O)[C@@H](O)[C@H]3O)c2n1` [2-methylthio-ADP], for which the “Uptake of phosphate tracer to plasma, % of study vehicle” value (shortened to “Uptake … % of study vehicle”) in assay [1] (dose 10 mg/kg) is more than 75%.
For the compound `O=C(O)CCCCN(CCc1ccccc1OCc1ccc(CCc2ccccc2)cc1)Cc1ccc(C(=O)O)cc1` [Bay 58-2667], the “Uptake … % of study vehicle” value in assay [2] (dose 10 mg/kg) was 50-75%.
`CCCCC(C)(C)[C@H](O)/C=C/[C@H]1[C@H](O)CC(=O)[C@@H]1C/C=C\CCCC(=O)O` [16,16-dimethyl-PGE2, 16,16-dimethyl PGE2]: the “Uptake … % of study vehicle” value in assay [2] (dose 3 μg/kg) is recorded as more than 75%.
Take `NC[C@@H]1O[C@H](c2ccccc2)Cc2c1ccc(O)c2O` [A68930]: in assay [2] (dose 10 mg/kg), the “Uptake … % of study vehicle” value was 50-75%.
Take `O=c1[nH]c(=S)ccn1[C@@H]1O[C@H](COP(=O)(O)OP(=O)(O)C(F)(F)P(=O)(O)O)[C@@H](O)[C@H]1O` [PSB1114]: the “Uptake … % of study vehicle” value in assay [1] (dose 15 mg/kg) is recorded as more than 75%.
For the compound `CCN[C@H]1C[C@H](C)S(=O)(=O)c2sc(S(N)(=O)=O)cc21` [Dorzolamide, dorzolamide], the response vs control in vivo at 20 mg/kg in assay [2] (Rattus norvegicus, po, 0.25 h, dose 20 mg/kg, read-out: Uptake of phosphate tracer to plasma, % of study vehicle) was 50 to 75%.
In the case of 6-guanyl NECA, the “Uptake … % of study vehicle” value in assay [2] (dose 10 mg/kg) is more than 75%.
Take `COc1ccc2[nH]cc(CCNC(C)=O)c2c1` [Melatonin, N-acetyl-5-methoxytryptamine]: the response vs control in vivo at 10 mg/kg in assay [2] (setting [4]) fell in the range of 50 to 75%.
`CC[C@H](C)[C@@H]1NC(=O)[C@H](CCCNC(=N)N)NC(=O)[C@H](CC(=O)O)NC(=O)[C@H](CCSC)NC(=O)[C@H](CCCNC(=N)N)NC(=O)CNC(=O)CNC(=O)[C@H](Cc2ccccc2)NC(=O)[C@@H](NC(=O)[C@H](CO)NC(=O)[C@H](CO)NC(=O)[C@H](CCCNC(=N)N)NC(=O)[C@H](CCCNC(=N)N)NC(=O)[C@H](CC(C)C)NC(=O)[C@@H](N)CO)CSSC[C@@H](C(=O)N[C@@H](CC(N)=O)C(=O)N[C@@H](CO)C(=O)N[C@@H](Cc2ccccc2)C(=O)N[C@@H](CCCNC(=N)N)C(=O)N[C@@H](Cc2ccc(O)cc2)C(=O)O)NC(=O)CNC(=O)[C@H](CC(C)C)NC(=O)CNC(=O)[C@H](CO)NC(=O)[C@H](CCC(N)=O)NC(=O)[C@H](C)NC(=O)CNC1=O` [Atrial natriuretic peptide]: the “Uptake … % of study vehicle” value in assay [1] (dose 0.2 mg/kg) is listed as more than 75%.
One may read the EC50 as the concentration giving half of the maximal effect. With `O=c1[nH]c(=O)n([C@@H]2O[C@H](COP(=O)(O)OP(=O)(O)OP(=O)(O)O)[C@@H](O)[C@H]2O)cc1I` [5-iodo-UTP], the EC50 at P2Y2 receptor was 830 nM.
As to `COCCCN1CCC(NC(=O)c2cc(Cl)c(N)c3c2OCC3)CC1` [Prucalopride, prucalopride], the response vs control in vivo at 10 mg/kg in assay [2] (setting [4]) is more than 75%.
With `N#Cc1c(N)nc(SCC(N)=O)c(C#N)c1-c1ccc(OCC2CC2)cc1` [BAY 60-6583], in assay [2] (dose 10 mg/kg), the “Uptake … % of study vehicle” value was more than 75%.
As for `Nc1nc(-c2nn(Cc3ccccc3F)c3ncccc23)ncc1C1CC1` [Bay 41-2271], the “Uptake … % of study vehicle” value in assay [2] (dose 10 mg/kg) is more than 75%.
As for `CCOC(=O)C1=C[C@]2(CC)CCCN3CCc4c(n1c1ccccc41)[C@@H]32` [Vinpocetine, vinpocetine], the response vs control in vivo at 1 mg/kg is 50 to 75% in assay [2] (Rattus norvegicus, po, 0.25 h, dose 1 mg/kg + 0.03 mg/kg Linacolitde, read-out: Uptake of phosphate tracer to plasma, % of study vehicle) and more than 75% in assay [2] (Rattus norvegicus, po, 0.25 h, dose 1 mg/kg, read-out: Uptake of phosphate tracer to plasma, % of study vehicle). The response vs control in vivo at 10 mg/kg was 25 to 50% in assay [2] (Rattus norvegicus, po, 0.25 h, dose 10 mg/kg + 0.03 mg/kg Linacolitde, read-out: Uptake of phosphate tracer to plasma, % of study vehicle) and more than 75% in assay [2] (setting [4]).
Take `C1COC(NC(C2CC2)C2CC2)=N1` [Rilmenidine, rilmenidine]: the response vs control in vivo at 3 mg/kg in assay [2] (Rattus norvegicus, po, 0.25 h, dose 3 mg/kg, read-out: Uptake of phosphate tracer to plasma, % of study vehicle) was more than 75%.
With `N[C@@H]1[C@H](O)[C@@H](COP(=O)(O)OP(=O)(O)OP(=O)(O)O)O[C@H]1n1ccc(=O)[nH]c1=S` [2′-amino-2-thio-UTP], the “selectivity, P2Y2-selective versus P2Y4” value at P2Y2 receptor (P2Y2 versus P2Y4) was 300 fold. Besides, the EC50 at P2Y2 receptor is 8 nM.
For `C[C@@H]1NC(=O)[C@@H]2CCCN2C(=O)[C@H](CC(N)=O)NC(=O)[C@@H]2CSSC[C@H](N)C(=O)N[C@H]3CSSC[C@H](NC1=O)C(=O)N[C@@H]([C@@H](C)O)C(=O)NCC(=O)N[C@H](C(=O)N[C@@H](Cc1ccc(O)cc1)C(=O)O)CSSC[C@H](NC(=O)[C@H](Cc1ccc(O)cc1)NC(=O)[C@H](CCC(=O)O)NC3=O)C(=O)N2` [Linaclotide] (H-CCEYCCNPACTGCY-OH; disulfide 1-6, 2-10, 5-13), the entries for the “Uptake … % of study vehicle” value in assay [2] (dose 0.03 mg/kg), in assay [2] (dose 0.1 mg/kg) and in assay [2] (dose 0.3 mg/kg) were 50-75%, 50-75% and 25-50%, respectively. For the same compound, the “uptake of phosphate in the gastrointestinal tract of rats” value (“uptake of phosphate … of rats” for short) in assay [3] is “reduces”. For the same compound, the “absorption of phosphate in the gastrointestinal tract (plasma 33P)” value in assay [3] (rats, both doses, 0.1 and 0.3 mg/kg, blood 5-60 min post-33P) is listed as “decreased”.
Take `COc1nc(C)nc(Cl)c1N=C1NCCN1` [Moxonidine, moxonidine]: in assay [2] (Rattus norvegicus, po, 0.25 h, dose 2 mg/kg, read-out: Uptake of phosphate tracer to plasma, % of study vehicle), the response vs control in vivo at 2 mg/kg was 50 to 75%. In addition, the response vs control in vivo at 6 mg/kg in assay [2] (Rattus norvegicus, po, 0.25 h, dose 6 mg/kg, read-out: Uptake of phosphate tracer to plasma, % of study vehicle) fell in the range of 25 to 50%. The “uptake of phosphate … of rats” value in assay [3] is “reduce”.
For the compound `O=c1ccn([C@@H]2O[C@H](COP(=O)(O)OP(=O)(O)OP(=O)(O)OP(=O)(O)OC[C@H]3O[C@@H](n4ccc(=O)[nH]c4=O)[C@H](O)[C@@H]3O)[C@@H](O)[C@H]2O)c(=O)[nH]1` [Up4U], in assay [2] (Rattus norvegicus, po, 0.25 h, dose 5 mg/kg, read-out: Uptake of phosphate tracer to plasma, % of study vehicle), the response vs control in vivo at 5 mg/kg is more than 75%. Further, in assay [2] (Rattus norvegicus, po, 0.25 h, dose 15 mg/kg, read-out: Uptake of phosphate tracer to plasma, % of study vehicle), the response vs control in vivo at 15 mg/kg is more than 75%. For the same compound, the response vs control in vivo at 50 mg/kg in assay [2] (Rattus norvegicus, po, 0.25 h, dose 50 mg/kg, read-out: Uptake of phosphate tracer to plasma, % of study vehicle) was more than 75%. The “uptake of phosphate … of rats” value in assay [3] is “reduces”. Moreover, the 33P uptake/absorption result in assay [3] (rats, 15 mg/kg) was “significantly decreased”.
In the case of `CC(C[N+](C)(C)C)OC(N)=O` (stereo not drawn) [Bethanechol, carbamoyl-β-methlycholine], the response vs control in vivo at 10 mg/kg in assay [2] (setting [4]) was more than 75%.

The values are drawn from patent US11813304B2, “Compounds and methods for inhibiting phosphate transport” (Ardelyx, Inc., priority 2013, dated 2023).
